Measured values reported in patent US20140349955A1, “USE OF FLUORINE-CONTAINING WATER SOLUBLE PLATINUM COMPLEX IN PREPARING DRUGS FOR PREVENTION AND TREATMENT OF CANCERS” (GUDUI BIOPHARMA TECHNOLOGY INC., priority 2011, published 2014).

Legend:
A549 = test: MTS cytotoxicity test, A549; assay type: cell-based; conditions: 96 h, read-out: IC50 value in human tumor cells
Description: (§1) Containing 10% bovine fetal serum, 1 mM of sodium pyruvate, 2 mM of L-glutamine, 50 U/mL of penicillin, 50 μg/mL of streptomycin
(§2) Human tumor cells: dul45-human prostate cancer; MCF-7-human breast cancer; SK0V3-human ovarian carcinoma, HT-29-human colon cancer; A549-human non-small cell lung cancer (adenocarcinoma), H460-human non-small cell lung cancer (large cell carcinoma), and animal tumor cells: L1210-mice leukemia cells used in the following activity test experiments were all purchased from Shanghai An Yan Commercial Trade Co., Ltd.
(§3) MTS test method was used in cytotoxicity assay. The tumor cells of logarithmic phase were collected, and then the concentration of cell suspension was adjusted, 100 μL of the cell suspension was added to each well, the cells were placed at 1000-10000 cells/well (edge well filled with sterile PBS). Cells were incubated at 37° C. with 5% CO2 to make cell monolayer overspread the bottom of each well (96-well flat-bottomed microplate). 100 μL of different concentrations of the test compounds was added to each well. Each condition was measured in five replicates. The microplate was incubated at 37° C. with 5% CO2 for 96 h and checked with inverted microscope. MTS working reagent: To 2 mL of MTS (2 mg/mL, prepared by DPBS) was added 100 μL of PMS (1 mg/mL, prepared by DPBS). The cell culture medium was discarded after centrifugation, the cell culture plate was carefully washed 2-3 times with PBS. Before detecting the absorbance value (OD), to each sample containing well was added 100 μL of cell culture medium, then 20 μL of MTS working reagent was added. After incubation at 37° C. with 5% CO2 for 2 h, the OD (optical density) value was detected at 490 nm.
(§4) Control group: the conditions are the same as the above without adding the active ingredient of antitumor agents, and the OD value was detected at 490 nm on the end of the experiment.
(§5) The cell inhibiting rate of the drugs to tumor cell growth was calculated according to the following formula:
(§6) 1) Cell viability (%)=OD of treated group/OD of control group×100%
(§7) 2) The cell viabilities under the different drug concentrations were determined, and then plotted against drug concentration. The IC50 value is the corresponding concentration in the obtained curve when the cell viability was 50%.

SKOV3 = test: MTS cytotoxicity test, SKOV3; assay type: cell-based; conditions: 96 h, read-out: IC50 value in human tumor cells
Description: as §1, §2, §3, §4, §5, §6, §7

MCF7 = test: MTS cytotoxicity test, MCF7; assay type: cell-based; conditions: 96 h, read-out: IC50 value in human tumor cells
Description: as §1, §2, §3, §4, §5, §6, §7

HT29 = test: MTS cytotoxicity test, HT29; assay type: cell-based; conditions: 96 h, read-out: IC50 value in human tumor cells
Description: as §1, §2, §3, §4, §5, §6, §7

DU145 = test: MTS cytotoxicity test, DU145; assay type: cell-based; conditions: 96 h, read-out: IC50 value in human tumor cells
Description: as §1, §2, §3, §4, §5, §6, §7

H460 = test: MTS cytotoxicity test, H460; assay type: cell-based; conditions: 96 h, read-out: IC50 value in human tumor cells
Description: as §1, §2, §3, §4, §5, §6, §7

L1210 tumor cells = test: Antitumor efficacy in L1210 tumor-bearing CDF1 mice (increase in life span); assay type: in vivo
Description: In the following test, antitumor efficacy studies were performed using 8-9 weeks old female CDF1 mice, the average weight of the animal is 20-25 grams. L1210 tumor cells (about 10^5 cells per mouse) were inoculated intraperitoneally. The fluorine-containing water-soluble platinum complexes were used to treat the tumor-bearing animals and the efficacy was compared compared with the clinical platinum antitumor drugs. […] Drugs were administered intraperitoneally on day 1 and day 4 after tumor cell transplantation. The number of experimental animals in each group was 6.
The experimental animals were purchased from Vital River Laboratory Animal Technology Co. Ltd., Tumor cells L1210-leukemia cells were purchased from Shanghai An Yan Commercial Trade Co. Ltd.
The increase in life span (ILS) is calculated as follows:
Wherein, St=the weighted median survival time of treated animals; Su=the weighted median survival time of untreated animals

[1] = cited from earlier work
[2] = 50 mg/Kg i.p. on day 1 and day 4
[3] = 100 mg/Kg i.p. on day 1 and day 4
[4] = 200 mg/Kg i.p. on day 1 and day 4
[5] = 24 mg/Kg i.p. on day 1 and day 4
[6] = 40 mg/Kg i.p. on day 1 and day 4
[7] = 80 mg/Kg i.p. on day 1 and day 4

SMILES: O=C1[O][Pt]2([NH]C3CCCCC3[NH]2)[O]C(=O)C1(F)CCCOC1OC(CO)C(O)C(O)C1O (stereo not shown) [Complex 9]
- IC50 (A549): 10.2 µM
- IC50 (SKOV3): 21.3 µM
- IC50 (MCF7): 6.71 µM
- IC50 (HT29): 1.2 µM
- IC50 (DU145): 7.04 µM
- IC50 (H460): 21.4 µM
- ILS (%) (L1210 tumor cells; [2]): >400%
- Survived Animals on Day 42 (L1210 tumor cells; [2]): 6/6
- Weight Changes (g) (L1210 tumor cells; 50 mg/Kg i.p. on day 1 and day 4, weight changes from the first day to the seventh day): +1.5 g
- ILS (%) (L1210 tumor cells; [3]): >400%
- Survived Animals on Day 42 (L1210 tumor cells; [3]): 6/6
- Weight Changes (g) (L1210 tumor cells; 100 mg/Kg i.p. on day 1 and day 4, weight changes from the first day to the seventh day): +0.1 g
- ILS (%) (L1210 tumor cells; [4]): >400%
- Survived Animals on Day 42 (L1210 tumor cells; [4]): 6/6
- Weight Changes (L1210 tumor cells; 200 mg/Kg i.p. on day 1 and day 4, weight changes from the first day to the seventh day): -0.5 g

SMILES: N.N.O=C([O-])C1(C(=O)[O-])CCC1.[Pt+2] [Carboplatin]
- ILS (%) (L1210 tumor cells; [5]): 10%
- Survived Animals on Day 42 (L1210 tumor cells; [5]): 0/6
- Weight Changes (g) (L1210 tumor cells; 24 mg/Kg i.p. on day 1 and day 4, weight changes from the first day to the seventh day): +0 g
- ILS (%) (L1210 tumor cells; [6]): 24%
- Survived Animals on Day 42 (L1210 tumor cells; [6]): 0/6
- Weight Changes (L1210 tumor cells; 40 mg/Kg i.p. on day 1 and day 4, weight changes from the first day to the seventh day): -0.3 g
- ILS (%) (L1210 tumor cells; [7]): 55%
- Survived Animals on Day 42 (L1210 tumor cells; [7]): 1/6
- Weight Changes (L1210 tumor cells; 80 mg/Kg i.p. on day 1 and day 4, weight changes from the first day to the seventh day): -1.2 g
- water solubility [1]: 17 mg/mL
